Results on 3 compounds are retold here after US20250206723A1, “METHODS AND PROCESSES FOR THE PREPARATION OF MCT4 INHIBITORS” (Vettore, LLC, priority 2022, published 2025).

Molecules are shown by their SMILES. Structures can show the parent of a compound that is named as a salt.

For orientation: AUC(0-inf) means total exposure, with the tail of the curve extrapolated. A low value points to low exposure. What is called AUC(0-t) is the area under the concentration-time curve up to a stated or last time point. One may read the Km as the substrate concentration at which the rate is half of its maximum.

A short description of data set [1]: Dog pharmacokinetics, oral powder in capsule. The class given is in vivo, beagle dogs. The settings on record: for AUCinf / AUClast: single 3 mg/kg, powder in capsule, mean, 3 mg/kg, in ng·h/mL. Here is the method:
Groups, Dosing, and Collection. The pharmacokinetics of the free acid and the tris salt of the compound of Formula I administered by oral capsules was assessed in dogs. Three male beagle dogs were administered a single dose of 3 mg/kg free acid on Day 1 of the study, and a single dose of 3 mg/kg tris salt on Day 8 of the study. Plasma was collected pre-dose, and at 0.5, 1, 2, 4, 8, 12 and 24 hours post-dose via puncture of peripheral veins.
(§1) LC MS-MS Analysis. Liquid Chromatography with tandem mass spectrometry was used to determine plasma concentrations of the compound of Formula I free acid and the tris salt in plasma samples collected at prescribed time points. Instrumentation included YMC-Triart C18, S-5 μm (50×2.1 mm) HPLC column, liquid chromatograph Shimadzu LC-30AD with communications bus module CBM-20A and Auto SIL-20AC HT; and a Triple Quad 5500 LC/MS/MS instrument. Tolbutamide was used as an internal standard.

Data set [2] can be described thus: Rat pharmacokinetics, oral gavage, plasma by LC-MS/MS. The class given is in vivo, Sprague-Dawley rats.
A short description of data set [3]: Dog pharmacokinetics, oral gavage of suspension (0.5% methylcellulose in saline). The class given is in vivo. The settings on record: male beagle dogs; for AUC(0-inf) / AUC(0-t): dog, plasma, oral gavage suspension, mean. As to the method:
In a follow-up study, the pharmacokinetics of tris salt of the compound of Formula I were investigated via oral gavage of a 0.5% methylcellulose in saline formulation. Two groups of animals were tested. In Group 1, three male beagle dogs were administered a single dose of 3 mg/kg tris salt. In Group 2, three male beagle dogs were administered a single dose of 30 mg/kg tris salt. Plasma was collected pre-dose, and at 0.5, 1, 2, 4, 8, 12 and 24 hours post-dose via puncture of peripheral veins.
as §1

For a further data set, the target named is MCT4 (Homo sapiens, UniProt O15427). The settings on record: affinity of MCT4 for lactate; cited from earlier work.
[4] abbreviates: rat male, 20 mg/kg free acid, oral gavage, mean.
The mark [5] stands for this setting: male beagle dogs, listed as Salt.

MCT4, sequence (O15427 whole entry): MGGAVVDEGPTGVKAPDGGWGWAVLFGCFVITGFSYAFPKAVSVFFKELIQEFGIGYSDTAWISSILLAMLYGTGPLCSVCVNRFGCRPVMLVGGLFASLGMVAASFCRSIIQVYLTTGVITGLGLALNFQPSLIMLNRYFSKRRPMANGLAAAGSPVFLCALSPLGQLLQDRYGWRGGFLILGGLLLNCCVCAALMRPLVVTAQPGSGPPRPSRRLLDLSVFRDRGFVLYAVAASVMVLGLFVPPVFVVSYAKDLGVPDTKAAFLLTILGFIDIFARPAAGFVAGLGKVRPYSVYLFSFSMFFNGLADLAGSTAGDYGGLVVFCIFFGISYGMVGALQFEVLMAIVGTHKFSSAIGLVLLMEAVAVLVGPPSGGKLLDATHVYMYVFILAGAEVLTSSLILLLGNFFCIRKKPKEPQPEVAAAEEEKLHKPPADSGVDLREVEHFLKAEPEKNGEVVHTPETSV

Consider `CC(C)(OCc1cc(-c2cccc(OC3CCC3)c2)n(-c2ccccc2N2CCC2)n1)C(=O)O` [Free Acid, 2-([1-[2-(azetidin-1-yl)phenyl]-5-(3-cyclobutoxyphenyl)-1H-pyrazol-3-yl]methoxy)-2-methylpropanoic acid], for which the clinical symptoms entry in data set [1] (male beagle dogs, single 3 mg/kg oral capsule) is listed as “No abnormal clinical symptoms”; in data set [2] (rats, single oral gavage, all dose groups), “No abnormal clinical symptoms”. Moreover, the AUCinf in data set [1] (male beagle dogs) stood at 1265. The compound also came in with an AUClast in data set [1] (male beagle dogs) of 1215. For the same compound, the “AUC—% Extrap_obs” value in data set [2] (rat female, 20 mg/kg free acid, oral gavage, mean) is recorded as 9.9%; in data set [2] (rat female, 60 mg/kg free acid, oral gavage, mean), 16.7%; in data set [2] (rat female, 200 mg/kg free acid, oral gavage, mean), 22.1%; in data set [2] (setting [4]) it was 0.61%; in data set [2] (rat male, 60 mg/kg free acid, oral gavage, mean), 0.477%; in data set [2] (rat male, 200 mg/kg free acid, oral gavage, mean), 0.704%. Further, the AUClast/D in data set [2] (setting [4]) turned out to be 8332 ng·h/mL.

On to `CC(C)(OCc1cc(-c2cccc(OC3CCC3)c2)n(-c2ccccc2N2CCC2)n1)C(=O)O` [Tris Salt], for which the total exposure AUC(0-inf) in data set [3] (3 mg/kg) was determined as 5200 ng·h/mL; in data set [3] (30 mg/kg), 56800 ng·h/mL. Moreover, the AUC(0-t) in data set [3] (3 mg/kg) is 5080 ng·h/mL; in data set [3] (30 mg/kg) it was 41300 ng·h/mL. Besides, the clinical symptoms entry in data set [3] (single 3 or 30 mg/kg oral gavage) is given as “No abnormal clinical symptoms”. Also, in data set [1] (dogs, powder in capsule and suspension formulations), the “total drug exposure across time (AUClast and AUCInf) compared to the free acid” value is reported as “higher”. The AUCinf in data set [1] (setting [5]) is recorded as 4092. Moreover, the AUClast in data set [1] (setting [5]) was 3924. In addition, the “AUC—% Extrap_obs” value in data set [2] (rat female, 25 mg/kg tris salt, oral gavage, mean) was determined as 9%; in data set [2] (rat female, 75 mg/kg tris salt, oral gavage, mean), 18.5%; in data set [2] (rat female, 250 mg/kg tris salt, oral gavage, mean) it was 59.9%; in data set [2] (rat male, 25 mg/kg tris salt, oral gavage, mean), 1.28%; in data set [2] (rat male, 75 mg/kg tris salt, oral gavage, mean), 0.473%; in data set [2] (rat male, 250 mg/kg tris salt, oral gavage, mean) it was 26.5%. Also, the “total drug exposure across time (AUClast and AUCInf) versus free acid groups” value in data set [2] (rats, male and female) is listed as “higher”. The “Maximum exposure levels (Cmax) versus free acid groups” value in data set [2] (rats, male and female, except females at 20/25 mg/kg) is “higher”.

On to `CC(O)C(=O)O` (stereo not shown) [lactate], for which, at MCT4, the Km is 28 mM.
